Experimental data as given in ChEMBL document CHEMBL1201862, “PubChem BioAssay data set” (2004).
Active and inactive are the calls of the source.

Tests used:
Vero [1] = test: host cell cytotoxicity of antiviral hits, dose response, cytotoxicity control for West Nile virus antiviral project, secondary assay (AID 1650); format: functional; settings: Chlorocebus sabaeus
SUMO-activating enzyme [2] = biological target: T1, SUMO-activating enzyme (Homo sapiens, UniProt Q9UBT2); test: SUMOylation inhibitor hit validation, confirmation, SUMOylation inhibitor project, biochemical, AlphaScreen (AID 2018); format: functional
[3] = inhibitors of intracellular T. cruzi replication, confirmation, NIH3T3 host cells, beta-gal luminescence (AID 2044); format: functional, cell-based;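 also: intracellular parasites grown in NIH/3T3 mouse fibroblasts as host cells; luminescent beta-galactosidase reporter signal from transgenic T. cruzi replicating inside host cells; inhibitors lower the luminescence signal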
[4] = cytotoxicity toward NIH3T3 fibroblasts, dose response, counter-screen, cell-based, ATP luminescence, mouse fibroblasts (AID 2010); format: functional;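 also: cells exposed to compound for about 90 hours before reading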
SUMO-activating enzyme [5] = biological target: T1, SUMO-activating enzyme; test: inhibitors of in vitro SUMOylation cascade, primary screen, biochemical, HTRF, uHTS (AID 2006); format: protein-complex assay
[6] = biological target: Induced myeloid leukemia cell differentiation protein Mcl-1 (Homo sapiens, UniProt Q07820); format: functional
Insulin-degrading enzyme [7] = biological target: T2, Insulin-degrading enzyme (Homo sapiens, UniProt P14735); test: activators of endogenous IDE in HEK cells, dose response, cell-based, fluorescence polarization (AID 588439); format: functional
T2 sequence (P14735 whole entry): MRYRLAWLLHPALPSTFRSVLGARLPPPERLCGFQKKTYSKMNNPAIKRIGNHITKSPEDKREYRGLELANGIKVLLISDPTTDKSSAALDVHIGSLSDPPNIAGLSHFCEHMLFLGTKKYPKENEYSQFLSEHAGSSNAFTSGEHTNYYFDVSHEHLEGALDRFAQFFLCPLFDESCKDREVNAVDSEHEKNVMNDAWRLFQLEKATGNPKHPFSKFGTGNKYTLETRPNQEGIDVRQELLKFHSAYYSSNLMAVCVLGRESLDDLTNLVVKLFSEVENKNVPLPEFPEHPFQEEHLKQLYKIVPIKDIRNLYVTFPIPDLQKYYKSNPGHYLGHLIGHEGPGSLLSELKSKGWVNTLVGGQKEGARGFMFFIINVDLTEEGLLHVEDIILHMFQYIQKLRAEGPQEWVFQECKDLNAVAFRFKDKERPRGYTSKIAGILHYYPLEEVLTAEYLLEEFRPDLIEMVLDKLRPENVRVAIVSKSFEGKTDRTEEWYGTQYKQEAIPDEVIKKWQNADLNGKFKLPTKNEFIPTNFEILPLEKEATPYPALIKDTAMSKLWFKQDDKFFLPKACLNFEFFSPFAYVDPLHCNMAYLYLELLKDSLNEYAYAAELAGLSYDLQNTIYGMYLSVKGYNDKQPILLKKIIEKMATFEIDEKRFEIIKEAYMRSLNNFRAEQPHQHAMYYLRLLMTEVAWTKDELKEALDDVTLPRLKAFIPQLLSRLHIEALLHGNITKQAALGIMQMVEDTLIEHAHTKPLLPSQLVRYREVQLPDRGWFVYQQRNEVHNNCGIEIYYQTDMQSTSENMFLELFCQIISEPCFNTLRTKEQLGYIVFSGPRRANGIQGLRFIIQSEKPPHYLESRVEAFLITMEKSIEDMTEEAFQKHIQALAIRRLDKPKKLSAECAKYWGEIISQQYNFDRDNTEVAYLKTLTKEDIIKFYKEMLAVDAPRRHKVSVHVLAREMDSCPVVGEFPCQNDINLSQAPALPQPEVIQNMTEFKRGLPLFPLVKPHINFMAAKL

HEK293 [8] = test: optical interference in Abeta FP readout, dose response, artefact control for IDE activator project, biochemical, fluorescence polarization (AID 588442); format: functional, cell-based; settings: Homo sapiens
Insulin-degrading enzyme [9] = biological target: T2, Insulin-degrading enzyme; test: activators of recombinant IDE enzyme, dose response, counter-screen for IDE activator project, biochemical, fluorescence polarization (AID 588681)
HEK293 [10] = test: HEK cell cytotoxicity by LDH release, dose response, cytotoxicity control for IDE activator project, fluorescence, HEK cells (AID 588440); format: functional, cell-based; settings: Homo sapiens;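 also: cytotoxicity by LDH release measuring loss of membrane integrity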
[11] = biological target: Voltage-gated inwardly rectifying potassium channel KCNH2 (Homo sapiens, UniProt Q12809); settings: Potency;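 also: confirmatory quantitative high-throughput screen measuring inhibition of hERG channel activity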
Genome polyprotein = Genome polyprotein (dengue virus type 2, UniProt P29990); test: Dengue-2 NS5 methyltransferase inhibitors, primary screen, biochemical, confirmation dose response (AID 588689); format: functional
Streptokinase A = biological target: T3, Streptokinase A (Streptococcus pyogenes serotype M1, UniProt P10520); test: S. pyogenes streptokinase expression inhibitors, potency, dose response, plasminogen activation absorbance, OD405 (AID 1914); format: functional, Streptococcus pyogenes M1 GAS;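 also: secreted streptokinase activity via plasminogen activation per viability signal from cell pellet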
T3 sequence (P10520 whole entry): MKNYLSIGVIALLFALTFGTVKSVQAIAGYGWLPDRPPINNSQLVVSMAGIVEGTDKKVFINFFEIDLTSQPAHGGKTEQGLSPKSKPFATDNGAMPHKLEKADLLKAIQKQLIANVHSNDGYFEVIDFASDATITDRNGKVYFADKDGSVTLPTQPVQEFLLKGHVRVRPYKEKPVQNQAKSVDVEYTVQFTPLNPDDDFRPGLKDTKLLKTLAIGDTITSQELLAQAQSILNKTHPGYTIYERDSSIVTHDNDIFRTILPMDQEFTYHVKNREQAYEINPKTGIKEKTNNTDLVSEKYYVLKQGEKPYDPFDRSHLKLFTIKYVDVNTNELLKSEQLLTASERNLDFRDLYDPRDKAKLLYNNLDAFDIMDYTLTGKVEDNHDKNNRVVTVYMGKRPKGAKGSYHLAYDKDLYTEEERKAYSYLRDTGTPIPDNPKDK

Vero [12] = test: Vero cell cytotoxicity, cytotoxicity control for flavivirus capping enzyme inhibitors (AID 588742); format: functional; settings: Chlorocebus sabaeus
[13] = system: Streptococcus sp. 'group A'; test: growth inhibition of control SK(-) GAS strain, dose response, counter-screen for streptokinase expression inhibitor project, luminescence, kanamycin, BacTiterGlo, confirmation (AID 1900); format: functional, organism-based
Streptococcus = test: Group A Streptococcus viability loss, dose response, counter-screen for streptokinase expression inhibitor project, luminescence, BacTiterGlo (AID 1915); format: functional, organism-based;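 also: potency for reduction of bacterial viability or growth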
Cytochrome P450 2C9 = Cytochrome P450 2C9 (Homo sapiens, UniProt P11712)
Cytochrome P450 3A4 = Cytochrome P450 3A4 (Homo sapiens, UniProt P08684);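 also: CYP3A4 tested as one member of a cytochrome P450 panel screen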
Sequence of Cytochrome P450 3A4 (P08684 whole entry): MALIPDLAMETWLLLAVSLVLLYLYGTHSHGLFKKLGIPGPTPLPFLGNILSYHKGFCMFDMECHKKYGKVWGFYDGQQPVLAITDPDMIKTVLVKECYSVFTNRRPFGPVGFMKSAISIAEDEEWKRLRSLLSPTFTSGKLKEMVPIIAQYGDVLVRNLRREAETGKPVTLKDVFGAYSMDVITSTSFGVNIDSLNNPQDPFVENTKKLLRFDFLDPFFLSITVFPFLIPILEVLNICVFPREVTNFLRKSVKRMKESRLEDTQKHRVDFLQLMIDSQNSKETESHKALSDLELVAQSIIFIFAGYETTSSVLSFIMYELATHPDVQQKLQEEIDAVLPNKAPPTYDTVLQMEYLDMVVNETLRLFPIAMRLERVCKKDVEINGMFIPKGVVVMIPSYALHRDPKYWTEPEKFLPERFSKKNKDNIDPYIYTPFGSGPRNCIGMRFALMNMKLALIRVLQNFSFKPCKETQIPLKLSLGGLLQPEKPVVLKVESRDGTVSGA

Sequence of Voltage-gated inwardly rectifying potassium channel KCNH2 (Q12809 whole entry): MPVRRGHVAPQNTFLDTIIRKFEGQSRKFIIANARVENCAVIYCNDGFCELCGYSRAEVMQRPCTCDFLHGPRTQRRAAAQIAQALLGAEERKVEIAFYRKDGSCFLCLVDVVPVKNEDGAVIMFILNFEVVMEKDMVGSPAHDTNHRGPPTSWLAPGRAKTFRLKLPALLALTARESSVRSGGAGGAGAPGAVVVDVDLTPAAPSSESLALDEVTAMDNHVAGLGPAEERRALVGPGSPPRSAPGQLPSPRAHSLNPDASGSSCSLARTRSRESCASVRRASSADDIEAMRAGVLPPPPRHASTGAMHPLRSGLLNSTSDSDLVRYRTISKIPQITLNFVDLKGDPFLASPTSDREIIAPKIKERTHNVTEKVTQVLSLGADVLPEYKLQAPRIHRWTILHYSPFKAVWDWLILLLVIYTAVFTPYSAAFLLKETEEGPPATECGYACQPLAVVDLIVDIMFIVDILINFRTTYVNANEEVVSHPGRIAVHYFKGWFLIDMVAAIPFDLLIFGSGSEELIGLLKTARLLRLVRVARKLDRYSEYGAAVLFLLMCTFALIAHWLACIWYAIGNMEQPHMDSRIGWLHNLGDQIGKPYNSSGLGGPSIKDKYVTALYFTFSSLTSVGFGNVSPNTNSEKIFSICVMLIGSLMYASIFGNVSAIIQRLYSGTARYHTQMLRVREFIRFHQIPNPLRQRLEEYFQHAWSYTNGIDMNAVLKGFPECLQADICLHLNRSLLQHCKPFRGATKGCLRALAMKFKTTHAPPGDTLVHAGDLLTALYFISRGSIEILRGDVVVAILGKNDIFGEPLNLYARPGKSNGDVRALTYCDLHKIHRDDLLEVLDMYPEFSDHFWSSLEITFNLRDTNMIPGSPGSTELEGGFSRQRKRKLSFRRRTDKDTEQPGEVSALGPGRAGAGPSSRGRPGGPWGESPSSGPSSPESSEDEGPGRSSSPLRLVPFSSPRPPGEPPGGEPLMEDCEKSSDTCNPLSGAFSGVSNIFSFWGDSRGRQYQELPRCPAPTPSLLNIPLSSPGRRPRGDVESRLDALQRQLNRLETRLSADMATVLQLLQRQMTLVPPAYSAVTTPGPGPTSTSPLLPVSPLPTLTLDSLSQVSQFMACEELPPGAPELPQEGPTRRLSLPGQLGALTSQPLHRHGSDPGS
T1 sequence (Q9UBE0 whole entry): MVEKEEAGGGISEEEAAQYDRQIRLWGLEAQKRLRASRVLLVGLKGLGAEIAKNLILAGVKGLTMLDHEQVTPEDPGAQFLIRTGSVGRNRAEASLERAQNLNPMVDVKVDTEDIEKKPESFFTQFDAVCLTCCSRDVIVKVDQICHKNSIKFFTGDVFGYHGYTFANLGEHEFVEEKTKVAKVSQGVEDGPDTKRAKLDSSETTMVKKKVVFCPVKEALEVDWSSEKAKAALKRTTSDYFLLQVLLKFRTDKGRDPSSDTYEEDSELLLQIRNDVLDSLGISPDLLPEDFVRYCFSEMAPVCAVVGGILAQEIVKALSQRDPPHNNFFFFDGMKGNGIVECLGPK
T1 sequence (Q9UBT2 whole entry): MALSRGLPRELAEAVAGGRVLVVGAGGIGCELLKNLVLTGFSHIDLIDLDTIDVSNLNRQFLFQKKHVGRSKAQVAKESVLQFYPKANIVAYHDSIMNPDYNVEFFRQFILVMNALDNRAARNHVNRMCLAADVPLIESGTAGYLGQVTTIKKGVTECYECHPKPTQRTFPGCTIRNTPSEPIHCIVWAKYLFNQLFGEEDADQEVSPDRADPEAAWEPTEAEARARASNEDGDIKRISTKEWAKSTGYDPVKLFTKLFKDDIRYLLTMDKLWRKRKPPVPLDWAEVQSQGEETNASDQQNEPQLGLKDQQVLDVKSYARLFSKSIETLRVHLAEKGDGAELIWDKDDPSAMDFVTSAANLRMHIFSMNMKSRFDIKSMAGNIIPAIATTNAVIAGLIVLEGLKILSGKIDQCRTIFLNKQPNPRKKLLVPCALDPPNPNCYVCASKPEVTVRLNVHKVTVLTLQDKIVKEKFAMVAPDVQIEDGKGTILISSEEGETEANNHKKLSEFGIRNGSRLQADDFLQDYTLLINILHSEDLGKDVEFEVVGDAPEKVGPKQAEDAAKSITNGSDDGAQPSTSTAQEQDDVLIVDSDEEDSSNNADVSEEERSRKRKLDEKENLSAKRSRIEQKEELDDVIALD
Sequence of Genome polyprotein (P29990 2492-3391 limits assumed): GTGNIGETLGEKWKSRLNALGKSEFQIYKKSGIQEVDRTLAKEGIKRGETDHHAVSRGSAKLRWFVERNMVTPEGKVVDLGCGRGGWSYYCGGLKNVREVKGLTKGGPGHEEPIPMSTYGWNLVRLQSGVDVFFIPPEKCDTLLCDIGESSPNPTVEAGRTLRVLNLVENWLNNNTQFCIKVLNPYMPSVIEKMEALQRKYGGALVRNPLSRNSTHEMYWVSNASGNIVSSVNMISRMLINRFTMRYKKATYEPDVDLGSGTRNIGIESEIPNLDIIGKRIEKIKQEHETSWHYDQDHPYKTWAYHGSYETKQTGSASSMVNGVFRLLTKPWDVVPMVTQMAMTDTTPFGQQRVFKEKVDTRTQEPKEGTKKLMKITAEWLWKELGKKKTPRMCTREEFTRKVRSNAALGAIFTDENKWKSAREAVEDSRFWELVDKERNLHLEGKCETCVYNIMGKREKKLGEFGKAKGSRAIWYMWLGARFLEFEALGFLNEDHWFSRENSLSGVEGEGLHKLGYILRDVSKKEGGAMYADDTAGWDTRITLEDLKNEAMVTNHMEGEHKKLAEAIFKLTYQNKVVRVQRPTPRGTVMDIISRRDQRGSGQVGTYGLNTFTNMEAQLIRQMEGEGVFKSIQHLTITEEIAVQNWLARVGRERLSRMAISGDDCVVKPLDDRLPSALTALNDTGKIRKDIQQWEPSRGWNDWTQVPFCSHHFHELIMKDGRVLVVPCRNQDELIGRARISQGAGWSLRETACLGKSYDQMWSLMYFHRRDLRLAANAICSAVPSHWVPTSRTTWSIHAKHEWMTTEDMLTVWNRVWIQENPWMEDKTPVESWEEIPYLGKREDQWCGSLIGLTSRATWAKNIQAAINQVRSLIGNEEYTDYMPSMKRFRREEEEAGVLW
Sequence of Induced myeloid leukemia cell differentiation protein Mcl-1 (Q07820 whole entry): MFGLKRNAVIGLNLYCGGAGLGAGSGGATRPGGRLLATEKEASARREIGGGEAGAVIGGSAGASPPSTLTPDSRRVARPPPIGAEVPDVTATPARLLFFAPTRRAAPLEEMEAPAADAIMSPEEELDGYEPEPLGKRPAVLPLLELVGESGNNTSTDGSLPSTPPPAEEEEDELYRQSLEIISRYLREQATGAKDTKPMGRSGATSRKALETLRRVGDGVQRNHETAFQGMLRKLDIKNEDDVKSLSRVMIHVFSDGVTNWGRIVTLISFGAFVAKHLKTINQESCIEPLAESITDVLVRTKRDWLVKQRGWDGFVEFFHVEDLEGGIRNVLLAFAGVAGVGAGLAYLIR
Sequence of Cytochrome P450 2C9 (P11712 whole entry): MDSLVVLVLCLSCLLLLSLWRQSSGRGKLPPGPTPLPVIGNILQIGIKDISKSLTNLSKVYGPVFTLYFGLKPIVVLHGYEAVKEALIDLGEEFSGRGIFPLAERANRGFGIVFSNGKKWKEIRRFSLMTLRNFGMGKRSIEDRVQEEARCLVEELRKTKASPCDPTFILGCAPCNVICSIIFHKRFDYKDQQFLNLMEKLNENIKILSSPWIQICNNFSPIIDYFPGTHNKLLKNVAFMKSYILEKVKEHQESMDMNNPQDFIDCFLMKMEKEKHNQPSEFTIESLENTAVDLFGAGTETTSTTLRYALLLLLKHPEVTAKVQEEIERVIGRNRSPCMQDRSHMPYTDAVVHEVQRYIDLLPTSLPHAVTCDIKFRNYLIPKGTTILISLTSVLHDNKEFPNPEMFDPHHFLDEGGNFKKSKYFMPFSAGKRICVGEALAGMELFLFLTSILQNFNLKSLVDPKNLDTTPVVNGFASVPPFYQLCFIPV

CC1=C(C(=O)Nc2ccccc2)C(c2ccc(C)cc2)NC(Nc2nc3ccccc3o2)=N1 (configuration not stated)
CC50 (Vero [1]): > 100 µM (active) | IC50 (SUMO-activating enzyme [2]): 20.2 µM (active) | EC50 [3]: 0.982 µM (active) | EC50 [4]: 22.3 µM (active) | IC50 (SUMO-activating enzyme [5]): 4.07 µM (active)

N#Cc1c2nc3ccccc3nc2n2cc(NC(=O)c3ccc(F)cc3)ccc12
IC50 [6]: 1.57 µM (active) | IC50 (SUMO-activating enzyme [2]): 1.8 µM (active) | IC50 (SUMO-activating enzyme [5]): 2.96 µM (active)

CCN(c1ccccc1)S(=O)(=O)c1ccc(N2CCN(c3ccc(OC)cc3)CC2)nc1
EC50 (Insulin-degrading enzyme [7]): > 54.7 µM (inactive) | EC50 (HEK293 [8]): > 55.9 µM (inactive) | EC50 (Insulin-degrading enzyme [9]): > 54.7 µM (inactive) | IC50 (HEK293 [10]): > 89.2 µM (inactive)

Brc1ccc(Oc2ccc(Br)cc2Br)c(Br)c1
AC50 [11]: 17.8 µM (inconclusive)

C[C@H]1COC2=C1C(=O)C(=O)c1c2ccc2c1CCCC2(C)C [CRYPTOTANSHINONE]
IC50 (Genome polyprotein): 90.1 µM (active) | EC50 (Streptokinase A): 14.8 µM (active) | CC50 (Vero [12]): 33.4 µM (active) | EC50 [13]: 5.17 µM (active) | EC50 (Streptococcus): 14.1 µM (active)

C/C=C1/C(=O)C[C@H]2[C@@H]3CCC4=CC(=O)CC[C@]4(C)[C@H]3CC[C@]12C [E-GUGGULSTERONE]
AC50 [11]: 17.8 µM (inconclusive)

COc1ccc(-n2nc(C(F)(F)F)cc2-c2ccc(Cl)cc2)cc1 [SC-560]
AC50 (Cytochrome P450 2C9): 25.1 µM (inconclusive) | AC50 (Cytochrome P450 3A4): 39.8 µM (inconclusive) | AC50 [11]: 31.6 µM (inconclusive)
